Experimental data from PubChem BioAssay (NCI).
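96-well plates; 48 h exposure; 5 concentrations. Endpoints by linear interpolation between flanking doses. Not reached: highest tested concentration assigned. GI50 marks 50% less growth. TGI: total growth inhibition.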

Experiments:
Assay in all cases: DTP human tumour cell line panel, 48 h
786-0 renal = test system: 786-0 renal
A498 renal = test system: A498 renal
A549 NSCLC = test system: A549 NSCLC
ACHN renal = test system: ACHN renal
BT-549 breast = test system: BT-549 breast
CAKI-1 renal = test system: CAKI-1 renal
CCRF-CEM leukemia = test system: CCRF-CEM leukemia
COLO 205 colon = test system: COLO 205 colon
DU-145 prostate = test system: DU-145 prostate
EKVX NSCLC = test system: EKVX NSCLC
HCC-2998 colon = test system: HCC-2998 colon
HCT-116 colon = test system: HCT-116 colon
HCT-15 colon = test system: HCT-15 colon
HL-60(TB) leukemia = test system: HL-60(TB) leukemia
HOP-62 NSCLC = test system: HOP-62 NSCLC
HS 578T breast = test system: HS 578T breast
HT29 colon = test system: HT29 colon
IGROV1 ovarian = test system: IGROV1 ovarian
K-562 leukemia = test system: K-562 leukemia
KM12 colon = test system: KM12 colon
LOX IMVI melanoma = test system: LOX IMVI melanoma
M14 melanoma = test system: M14 melanoma
MALME-3M melanoma = test system: MALME-3M melanoma
MCF7 breast = test system: MCF7 breast
MDA-MB-231 breast = test system: MDA-MB-231 breast
MDA-MB-435 = test system: MDA-MB-435
NCI-H226 lung = test system: NCI-H226 lung
NCI-H23 lung = test system: NCI-H23 lung
NCI-H460 lung = test system: NCI-H460 lung
NCI-H522 lung = test system: NCI-H522 lung
NCI/ADR-RES ovarian = test system: NCI/ADR-RES ovarian
OVCAR-3 ovarian = test system: OVCAR-3 ovarian
OVCAR-5 ovarian = test system: OVCAR-5 ovarian
OVCAR-8 ovarian = test system: OVCAR-8 ovarian
PC-3 prostate = test system: PC-3 prostate
RPMI-8226 leukemia = test system: RPMI-8226 leukemia
RXF 393 renal = test system: RXF 393 renal
SF-268 CNS = test system: SF-268 CNS
SF-295 CNS = test system: SF-295 CNS
SF-539 CNS = test system: SF-539 CNS
SK-MEL-2 melanoma = test system: SK-MEL-2 melanoma
SK-MEL-28 melanoma = test system: SK-MEL-28 melanoma
SK-MEL-5 melanoma = test system: SK-MEL-5 melanoma
SK-OV-3 ovarian = test system: SK-OV-3 ovarian
SN12C renal = test system: SN12C renal
SNB-19 CNS = test system: SNB-19 CNS
SW-620 colon = test system: SW-620 colon
T-47D breast = test system: T-47D breast
TK-10 renal = test system: TK-10 renal
U251 CNS = test system: U251 CNS
UACC-257 melanoma = test system: UACC-257 melanoma
UACC-62 melanoma = test system: UACC-62 melanoma
UO-31 renal = test system: UO-31 renal
MOLT-4 leukemia = test system: MOLT-4 leukemia
OVCAR-4 ovarian = test system: OVCAR-4 ovarian
SNB-75 CNS = test system: SNB-75 CNS

Brc1cccc[n+]1-c1ccc2cc(-[n+]3ccccc3Br)ccc2c1
TGI (786-0 renal): 69 µM
TGI (A498 renal): > 100 µM
TGI (A549 NSCLC): > 100 µM
TGI (ACHN renal): 37.2 µM
TGI (BT-549 breast): > 100 µM
TGI (CAKI-1 renal): > 100 µM
TGI (CCRF-CEM leukemia): > 100 µM
TGI (COLO 205 colon): > 100 µM
TGI (DU-145 prostate): 35.5 µM
TGI (EKVX NSCLC): > 100 µM
TGI (HCC-2998 colon): > 100 µM
TGI (HCT-116 colon): > 100 µM
TGI (HCT-15 colon): > 100 µM
TGI (HL-60(TB) leukemia): > 100 µM
TGI (HOP-62 NSCLC): 75.6 µM
TGI (HS 578T breast): > 100 µM
TGI (HT29 colon): > 100 µM
TGI (IGROV1 ovarian): 28 µM
TGI (K-562 leukemia): > 100 µM
TGI (KM12 colon): 40 µM
TGI (LOX IMVI melanoma): 34.7 µM
TGI (M14 melanoma): > 100 µM
TGI (MALME-3M melanoma): 72.7 µM
TGI (MCF7 breast): > 100 µM
TGI (MDA-MB-231 breast): 85.6 µM
TGI (MDA-MB-435): > 100 µM
TGI (NCI-H226 lung): > 100 µM
TGI (NCI-H23 lung): > 100 µM
TGI (NCI-H460 lung): > 100 µM
TGI (NCI-H522 lung): > 100 µM
TGI (NCI/ADR-RES ovarian): > 100 µM
TGI (OVCAR-3 ovarian): 46.4 µM
TGI (OVCAR-5 ovarian): > 100 µM
TGI (OVCAR-8 ovarian): > 100 µM
TGI (PC-3 prostate): > 100 µM
TGI (RPMI-8226 leukemia): 63.8 µM
TGI (RXF 393 renal): 87.6 µM
TGI (SF-268 CNS): 90.4 µM
TGI (SF-295 CNS): > 100 µM
TGI (SF-539 CNS): 40.1 µM
TGI (SK-MEL-2 melanoma): > 100 µM
TGI (SK-MEL-28 melanoma): > 100 µM
TGI (SK-MEL-5 melanoma): > 100 µM
TGI (SK-OV-3 ovarian): 55.6 µM
TGI (SN12C renal): > 100 µM
TGI (SNB-19 CNS): > 100 µM
TGI (SW-620 colon): > 100 µM
TGI (T-47D breast): 58.4 µM
TGI (TK-10 renal): 37.6 µM
TGI (U251 CNS): 29.8 µM
TGI (UACC-257 melanoma): > 100 µM
TGI (UACC-62 melanoma): > 100 µM
TGI (UO-31 renal): 38.5 µM

CCOC(=S)SCN1C(=O)c2ccccc2S1(=O)=O
GI50 (786-0 renal): 20.9 µM
TGI (786-0 renal): 47.9 µM
GI50 (A498 renal): 19.8 µM
TGI (A498 renal): 42 µM
GI50 (A549 NSCLC): 23.9 µM
TGI (A549 NSCLC): 58.3 µM
GI50 (ACHN renal): 16.8 µM
TGI (ACHN renal): 30.5 µM
GI50 (BT-549 breast): 16 µM
TGI (BT-549 breast): 38.4 µM
GI50 (CAKI-1 renal): 13 µM
TGI (CAKI-1 renal): 27.6 µM
GI50 (CCRF-CEM leukemia): 16.3 µM
TGI (CCRF-CEM leukemia): 39.4 µM
GI50 (COLO 205 colon): 2.94 µM
TGI (COLO 205 colon): 11.2 µM
GI50 (DU-145 prostate): 16.5 µM
TGI (DU-145 prostate): 34.2 µM
GI50 (EKVX NSCLC): 19.7 µM
TGI (EKVX NSCLC): 36.6 µM
GI50 (HCC-2998 colon): 16.2 µM
TGI (HCC-2998 colon): 29.8 µM
GI50 (HCT-116 colon): 13.6 µM
TGI (HCT-116 colon): 26.5 µM
GI50 (HCT-15 colon): 19.2 µM
TGI (HCT-15 colon): 36.1 µM
GI50 (HOP-62 NSCLC): 24.6 µM
TGI (HOP-62 NSCLC): 65.8 µM
GI50 (HS 578T breast): 29.4 µM
TGI (HS 578T breast): 82.5 µM
GI50 (HT29 colon): 14 µM
TGI (HT29 colon): 45.9 µM
GI50 (IGROV1 ovarian): 18.5 µM
TGI (IGROV1 ovarian): 52.4 µM
GI50 (K-562 leukemia): 35.7 µM
TGI (K-562 leukemia): > 100 µM
GI50 (KM12 colon): 35 µM
TGI (KM12 colon): > 100 µM
GI50 (LOX IMVI melanoma): 17.1 µM
TGI (LOX IMVI melanoma): 31.9 µM
GI50 (M14 melanoma): 16.4 µM
TGI (M14 melanoma): 33.5 µM
GI50 (MALME-3M melanoma): 1.94 µM
TGI (MALME-3M melanoma): 8.76 µM
GI50 (MCF7 breast): 44.1 µM
TGI (MCF7 breast): > 100 µM
GI50 (MDA-MB-231 breast): 19.3 µM
TGI (MDA-MB-231 breast): 40.9 µM
GI50 (MDA-MB-435): 6.5 µM
TGI (MDA-MB-435): 24.4 µM
GI50 (MOLT-4 leukemia): 32.7 µM
TGI (MOLT-4 leukemia): > 100 µM
GI50 (NCI-H226 lung): 29.2 µM
TGI (NCI-H226 lung): 80.9 µM
GI50 (NCI-H23 lung): 12.6 µM
TGI (NCI-H23 lung): 27.8 µM
GI50 (NCI-H460 lung): 45.4 µM
TGI (NCI-H460 lung): > 100 µM
GI50 (NCI-H522 lung): 11.3 µM
TGI (NCI-H522 lung): 27.8 µM
GI50 (NCI/ADR-RES ovarian): 14.1 µM
TGI (NCI/ADR-RES ovarian): 50.8 µM
GI50 (OVCAR-3 ovarian): 0.0358 µM
TGI (OVCAR-3 ovarian): 17.3 µM
GI50 (OVCAR-4 ovarian): 1.67 µM
TGI (OVCAR-4 ovarian): 3.87 µM
GI50 (OVCAR-5 ovarian): 14.5 µM
TGI (OVCAR-5 ovarian): 29.9 µM
GI50 (OVCAR-8 ovarian): 20.8 µM
TGI (OVCAR-8 ovarian): > 100 µM
GI50 (PC-3 prostate): 33 µM
TGI (PC-3 prostate): > 100 µM
GI50 (RPMI-8226 leukemia): 12.8 µM
TGI (RPMI-8226 leukemia): 38.2 µM
GI50 (RXF 393 renal): 6.97 µM
TGI (RXF 393 renal): 21.6 µM
GI50 (SF-268 CNS): 29.5 µM
TGI (SF-268 CNS): > 100 µM
GI50 (SF-295 CNS): 18 µM
TGI (SF-295 CNS): 59.2 µM
GI50 (SF-539 CNS): 24.7 µM
TGI (SF-539 CNS): 58.5 µM
GI50 (SK-MEL-2 melanoma): 44.5 µM
TGI (SK-MEL-2 melanoma): > 100 µM
GI50 (SK-MEL-28 melanoma): 3.42 µM
TGI (SK-MEL-28 melanoma): 15 µM
GI50 (SK-MEL-5 melanoma): 11.4 µM
TGI (SK-MEL-5 melanoma): 24.4 µM
GI50 (SK-OV-3 ovarian): 32.1 µM
TGI (SK-OV-3 ovarian): > 100 µM
GI50 (SN12C renal): 21 µM
TGI (SN12C renal): 46.6 µM
GI50 (SNB-19 CNS): 28.7 µM
TGI (SNB-19 CNS): 88.8 µM
GI50 (SNB-75 CNS): 4.68 µM
TGI (SNB-75 CNS): 29.6 µM
GI50 (SW-620 colon): 4.96 µM
TGI (SW-620 colon): 19.7 µM
GI50 (T-47D breast): 24.2 µM
TGI (T-47D breast): 80.5 µM
GI50 (TK-10 renal): 29.4 µM
TGI (TK-10 renal): > 100 µM
GI50 (U251 CNS): 18.7 µM
TGI (U251 CNS): 37.3 µM
GI50 (UACC-257 melanoma): 18.5 µM
TGI (UACC-257 melanoma): 55.2 µM
GI50 (UACC-62 melanoma): 20 µM
TGI (UACC-62 melanoma): 38 µM
GI50 (UO-31 renal): 14.3 µM
TGI (UO-31 renal): 29.4 µM
